What was measured:
[1] = system: female Syrian golden hamsters; test: post-coital-post-implantation antifertility activity, s.c., hamsters; format: in vivo, Syrian golden hamster; conditions: Mesocricetus auratus, sc, sesame oil containing 20% benzyl benzoate, daily for 5 days (days 4-8 of pregnancy), autopsy day 14, read-out: ED50 (100% activity, absence of live fetuses, in 50% of the animals)
Description: (§1) Representative experiments for assessing antifertility activity were carried out with female Syrian golden hamsters weighing 100 to 130 g. The animals were mated and the presence of sperm in the vagina was taken as evidence of mating. The day sperm was detected was considered day one of pregnancy, since in our laboratories and those of other investigators 90 to 100% of animals that mate as evidenced by vaginal sperm are pregnant.
(§2) Pregnancy was later confirmed at the time of autopsy by presence of fetuses or implantation sites in the uterus. Even if an animal aborts the fetus, implantation scars still remain as evidence that the animal has been pregnant. […] The animals were autopsied on day 14 of pregnancy and the uteri were examined for evidence of pregnancy (implantation sites, fetal resorptions or live fetuses), hemorrhage, and evidence of abnormalities of the uterus, placenta or fetuses. A compound was considered to be active if there was a reduction of live fetuses in at least 60% of the treated animals and the presence of implantation sites proves the animal to have been pregnant.
The compounds were then studied for dose-activity relationships and the corresponding ED50 values i.e., 100% activity (absence of live fetuses) in 50% of the animals, were also determined. The following Table reports the ED50 values of some representative compounds of the invention: […]

[2] = system: female Sprague-Dawley rats; test: anti-reproductive activity, s.c., rats; format: in vivo, Sprague-Dawley rat; conditions: Rattus norvegicus, sc, five consecutive days from day 6 of pregnancy, autopsy day 16
Description: The same criteria and experimental conditions as above were also applied when the anti-reproductive activity of the compounds of the invention was investigated in other animal species such as, for instance, rats, dogs, monkeys and baboons.
In representative experiments, female Sprague-Dawley rats weighing from 200 to 300 g. were treated subcutaneously with a dosage of 20 mg/kg of the compound to be tested, dissolved in sesame oil containing 20% of benzyl benzoate, for five consecutive days starting from day 6 of pregnancy.

hamsters [3] = test: antifertility activity by oral route, hamsters; format: in vivo, hamster; conditions: Mesocricetus auratus, p.o.
Description: as §1, §2
The compounds were then studied for dose-activity relationships and the corresponding ED50 values i.e., 100% activity (absence of live fetuses) in 50% of the animals, were also determined. The following Table reports the ED50 values of some representative compounds of the invention:
Favorable results were also obtained by administering the compounds of the invention by oral route. The experiments for assessing this property were carried out on hamsters following the same procedures as above, with the obvious exception that the compounds were administered orally instead of subcutaneously.

hamsters [4] = test: antifertility activity by intravaginal route, hamsters; format: in vivo, hamster; conditions: Mesocricetus auratus

| Structure (SMILES) | ED50 [1] | ED50 [2] | ED50 (hamsters [3]) | ED50 (hamsters [4]) |
| --- | --- | --- | --- | --- |
| c1ccc(-c2ccc(-c3nc4c5ccccc5ccn4n3)cc2)cc1 [Example 1, 2-[(1,1'-Biphenyl)-4-yl]-1,2,4-triazolo[5,1-a]isoquinoline] | 0.015 mg/kg | 0.55 mg/kg | 0.2 mg/kg | ~0.2 mg/kg |
| c1ccc(-c2ccc(-c3nc4n(n3)CCc3ccccc3-4)cc2)cc1 [Example 3, 2-[(1,1'-Biphenyl)-4-yl]-5,6-dihydro-1,2,4-triazolo[5,1-a]isoquinoline] | 0.05 mg/kg |  | 0.5 mg/kg |  |
| c1ccc(-c2ccc(-c3nc4n(n3)Cc3ccccc3-4)cc2)cc1 [Example 4, 2-[(1,1'-Biphenyl)-4-yl]-5H-1,2,4-triazolo[5,1-a]isoindole] | 0.7 mg/kg |  |  |  |
| c1ccc(-c2ccc(-c3cn4ccc5ccccc5c4n3)cc2)cc1 [Example 6, 2-[(1,1'-Biphenyl)-4-yl]-imidazo[2,1-a]isoquinoline] | 0.02 mg/kg |  | 0.3 mg/kg |  |
